This is an account of results in patent publication US10316039B2, “P2X3 and/or P2X2/3 compounds and methods” (Asana Biosciences, LLC, priority 2013, dated 2019).

This test addresses T1, P2X2/3 (Homo sapiens, UniProt P56373+Q9UBL9).
T1 sequence (Q9UBL9 1-471): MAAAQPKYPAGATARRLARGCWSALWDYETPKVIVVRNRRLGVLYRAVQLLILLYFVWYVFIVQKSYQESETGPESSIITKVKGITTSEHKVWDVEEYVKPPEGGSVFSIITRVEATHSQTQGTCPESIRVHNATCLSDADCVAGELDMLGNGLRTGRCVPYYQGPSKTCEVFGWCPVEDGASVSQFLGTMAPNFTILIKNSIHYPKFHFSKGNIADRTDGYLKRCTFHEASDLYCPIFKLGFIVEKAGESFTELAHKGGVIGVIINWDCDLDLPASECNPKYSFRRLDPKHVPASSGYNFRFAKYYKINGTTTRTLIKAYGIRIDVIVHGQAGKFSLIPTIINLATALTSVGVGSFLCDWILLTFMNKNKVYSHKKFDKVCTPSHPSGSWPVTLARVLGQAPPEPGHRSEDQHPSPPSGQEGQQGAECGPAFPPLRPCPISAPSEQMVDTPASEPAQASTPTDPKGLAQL
T1 sequence (P56373 1-397): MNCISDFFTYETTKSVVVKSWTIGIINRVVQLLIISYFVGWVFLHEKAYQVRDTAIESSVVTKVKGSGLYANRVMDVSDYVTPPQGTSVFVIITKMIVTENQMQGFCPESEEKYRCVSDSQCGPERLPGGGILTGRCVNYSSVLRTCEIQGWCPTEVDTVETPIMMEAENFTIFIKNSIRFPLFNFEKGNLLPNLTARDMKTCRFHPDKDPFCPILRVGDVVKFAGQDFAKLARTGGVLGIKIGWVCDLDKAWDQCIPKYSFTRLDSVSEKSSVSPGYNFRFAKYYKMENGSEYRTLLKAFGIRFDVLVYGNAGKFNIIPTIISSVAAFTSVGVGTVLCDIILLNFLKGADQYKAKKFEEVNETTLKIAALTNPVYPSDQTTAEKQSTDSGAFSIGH
Kind of test: P2X2/3 FLIPR intracellular calcium assay. The format is cell-based. Particulars: agonist at EC75, species (human or rat) not given. The procedure, abridged: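 Stable human P2X2/3 TRex293 cells (doxycycline-induced) loaded with Calcium 4 dye; compounds, 11-point half-log series from 2 mM top stock, preincubated 15 min at RT in HBSS/HEPES pH 7.4 with 1.8 mM CaCl2. Agonist added at EC75; fluorescence change versus no-compound wells gave IC50.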

Consider `CCc1cnnn1-c1cc(C(=O)NCc2ccc(C)nc2)cn2c(-c3ccc(C)s3)cnc12` [Example 22], for which the IC50 (as a rule, the concentration needed to halve the response being measured) lay in the range of 1 to 100 nM. The figure for `C[C@H](NC(=O)c1cc(-n2nncc2C(F)F)c2ncc(-c3ccc(Cl)s3)n2c1)c1nnc[nH]1` [Example 38] is 1 to 100 nM; for `CC[C@H](NC(=O)c1cc(-n2nncc2C(F)F)c2ncc(-c3ccc(C)s3)n2c1)c1nnc[nH]1` [Example 52] it is 1 to 100 nM.
